Assay [1] relates to Cholesterol Synthesis in HepG2 Cells. Kind of assay: HepG2 cell culture model, 14C-acetate incorporation assay. In kind it is cell-based, human. The following applies: for % Inhibition 14C-Ac / inhibition at 10 µM: 10 µM, about 4 hours; for inhibition at 10 µM: Homo sapiens, HepG2, read-out: % Inhibition 14C-Ac; for IC50: read-out: IC₅₀; for Rel. Potency: γ-Tocotrienol = 1.0. On the procedure: HepG2 cells obtained from the American Type Culture Collection were routinely passaged in RPMI-1640 plus 10% fetal bovine serum (FBS) and were subcultured into 35 mm diameter wells for experiments. […] The LDS medium supplement was prepared according to Cham et al., J. Lipid Res., 17: 176-181, (1976). After about 16 hours in LDS containing media, test compounds were added in dimetthylsulfoxide vehicle (0.5% v/v final conc.) for the period of time indicated in the data (generally 4 hours). Cholesterol synthesis was then directly determined by the incorporation of 2-14C-acetate (1.8-3.0 mCi/mmol) into digitonin-precipitable sterols essentially as described for the rat hepatocyte methol above. Greater than 97% of the radiolabelled sterol isolated by this procedure was cholesterol as judged by HPLC. Percent inhibition was calculated from the average of duplicates or triplicates vs. controls receiving vehicle.
(§1) The human hepatoma HepG2 cell culture model was employed to compare the intrinsic activities of the tocotrienols. HepG2 cells were incubated with the indicated compounds for about 4 hours at 10 µM. Cholestrol synthesis was assayed by 14C-acetate incorporation and HMG-CoA reductase suppression was assayed in the isolated microsomal fraction. Cholesterol synthesis inhibition was assayed by 14C-acetate incorporation after preincubation of HepG2 cells with the compounds for about 2 hours or about 4 hours (Example IV). […] As the data in Figure 1 indicate, gamma-tocotrienol has an even greater relative potency compared to alpha-tocotrienol in the HepG2 cell model than in rat hepatocytes. The IC50s from these studies are given in Table 3, in which it can be seen that the intrinsic potency of gamma-tocotrienol is over 30-fold greater than that of alpha-tocotrienol.

The subject of a further assay is HMG-CoA reductase. Put plainly: HepG2 cell culture model, HMG-CoA reductase suppression assay. It is filed as cell-based, human. As to conditions: 10 µM, about 4 hours, HepG2 cells. On the procedure: HMG-CoA reductase suppression in HepG2 cells was conducted by growing cells in RPMT-1640 plus 10% FBS on 100 mm plates, and when cells reached approximately 75% confluency, inducing with LDS (as described above) for about 16 hours prior to assays. Compounds were added using dimethylsulfoxide vehicle (0.5% v/v, final) and after about 4 hours of incubation at 37°, cells were harvested by scraping. Cell pellets were rinsed and lysed by sonication in 1.7 ml cold 50 mM imidazole-HCL, pH 7.2, 50 mM NaCl, 10 mM EDTA, 10 mM EGTA, 5 mM DTT, and 40µM leupeptin). Lysates were centriguged at 150 x g and the supernatant was centrifuged at 100,000 x g in a Beckman airfuge to isolate the post-nuclear total membrane fraction. The membranes were resuspended in 50 mM imidazole-HCl, pH 7.2, 250 mM NaCl, 5 mM DTT, and 20µM leupeptin and used for the assay of HMG-CoA reductase activity by the radiochemical procedure as described previously by Parker et al., J. Biol. Chem., 264: 4877-4887, (1989). Values were normalized for protein content by the Lowry method as cited previously (ibid). HMG-CoA reductase percent suppression was calculated as the decrease in specific activity of HMG-CoA reductase for treated cells vs. controls receiving vehicle. Averages of duplicate cell determinations assayed in duplicate were taken.
as §1
The mechanism of cholesterol synthesis inhibition by tocotrienols involves down regulation of the limiting enzyme of sterol synthesis, HMG-CoA reductase. […] The suppression of HMG-CoA reductase protein expression by gamma-tocotrienol and delta-tocotrienol in HepG2 cells and in rat liver has been confirmed by immunoassy using the Western blot technique (data not shown).

A further assay deals with Lipid Metabolism. Kind of assay: Lipid metabolism in normocholesterolemic chickens fed compound in diet. It is filed as in vivo. As to conditions: CCD + 20 ppm per head (text: 50 ppm).
Another assay has as its system Hepatic HMGCoA Reductase. Kind of assay: Acute rat HMGCoA reductase suppression model. It is filed as in vivo. As to conditions: four hours after administration; for Hepatic HMGCoA Reductase Activity (mean ± SEM): 195 µmol/kg (equivalent to 80 mg/kg Example 24) intragastric in olive oil, vehicle control 479 ± 88; for Hepatic HMGCoA Reductase Activity % of Control: 195 µmol/kg intragastric in olive oil. On the procedure:
Using an acute rate model for suppression of hepatic HMGCoA reductase, the effectiveness of three forms of d,l-γ-tocotrienol were compared in vivo. In this assay system, the test agents were administered by intragastric intubation as solutions dissolved in olive oil vehicle. Four hours after administration of test agents, rat liver HMGCoA reductase total activity levels were determined by standard techniques in this laboratory. […]

Assay [2] relates to Cholesterol Synthesis in Isolated Rat Hepatocytes. Kind of assay: Rat hepatocyte cholesterol biosynthesis model (14C-acetate incorporation into digitonin-precipitable sterols). It is filed as cell-based. The following applies: for inhibition at 210 µg/mL: 210 µg/ml (approx. 500 µM), 60 min 14C-acetate incorporation, 0.2% Tween-80; for inhibition at 250 µg/mL: read-out: % Inhibition at µg/ml conc: 250; for inhibition at 500 µg/mL: read-out: % Inhibition at µg/ml conc: 500; for IC50: read-out: IC₅₀. The protocol:
Primary rat parenchymal hepatocytes were prepared from male Wistar rats (180-220 g) at mid-dark in the diurnal cycle by standard collagenase perfusion method as described previously. Ingebritsen et al. J. Biol. Chem., 254: 9986-9989, (1979). Aliquots of cells were suspended (100 mg in 2 ml) in Eagle's minimum essential medium (MEM) supplemented with 2% bovine albumin, and preincubated in a shaking water bath at about 37° under 95% O₂/5% CO₂ with compounds added as given in the data. […] Following a preincubation of about 15 to about 45 minutes as indicated, cholesterol synthesis in intact cells was assayed by 2-14C-acetate (1.8 mCi/mmol, 0.5 µCi/ml) incorporation for about 30 to about 60 minutes (previously shown to be time-linear) into total digitonin-precipitable sterols. […] Percent inhibition was calculated from the average of duplicates vs. triplicate vehicle controls conducted simultaneously.
The primary rat hepatocyte assay for cholesterol bio-synthesis inhibition was conducted as described in Example 2 except the preincubation was about 45 minutes and the 14C-acetate incorporation was about 30 minutes. The indicated compounds were purified from the same natural product source as the mixture used in Example 2. […] Two-component mixtures of the constituents separated from the tocotrienol mixture were tested under the conditions indentical to Table 2A.

[3] abbreviates: Rattus norvegicus, Hepatocyte, 15 min preincubation.
The mark [4] stands for this setting: Rattus norvegicus, Hepatocyte, Expt. # 1, 45 min preincubation, 30 min incorporation.
[5] abbreviates: Rattus norvegicus, Hepatocyte, Expt. # 2, 45 min preincubation, 30 min incorporation.

In brackets after ≈: the same amount, converted by molar mass. Read-outs that look alike come from different tables or passages of the source. Bounds are passed on as bounds.

“3,4-dihydro-2-methyl-2-(4,8,12-trimethyltrideca-3(E),7(E),11-trienyl)-2H-1-benzopyran-6-ol [d,1-Tocotrienol]”: in assay [1], the “% Inhibition 14C-Ac” value was found to be 69%. For the same molecule, the “% Suppression HMG-CoA Reductase” value with HMG-CoA reductase is 62%.

`CC(C)=CCC/C(C)=C/CC/C(C)=C/CCC1(C)CCc2cc(O)c(C)c(C)c2O1` (racemic) [Ex. 24, 3,4-dihydro-2,7,8-trimethyl-2-(4,8,12-trimethyltrideca-3(E),7(E),11-trienyl)-2H-1-benzopyran-6-ol]: the “Serum Cholesterol” value with Lipid Metabolism (Table 6, synthetic compound, 4 weeks, control 158.8(±9.0)) is on record as 121.2(±2.2) mg/dl. Also, in the assay with Lipid Metabolism (Table 6), the “HDL-Cholesterol [% of Control]” value came out at 87.0%, the “LDL-Cholesterol [% of Control]” value was found to be 54.8%, the “Serum Cholesterol [% of Control]” value is on record as 76.3% and the “Serum Triglycerides [% of Control]” value is on record as 100.7%. Besides, the HDL/LDL in the assay with Lipid Metabolism (Table 6, control 1.938) is listed as 3.080. Besides, the LDL-Cholesterol in the assay on Lipid Metabolism (Table 6, control 52.8 (±1.1)) is 28.9(±1.2) mg/dl. Further, in the assay with Lipid Metabolism (Table 6, control 63.4(±2.1)), the “Serum Triglycerides” value was 63.9(±1.6) mg/dl. In addition, the HDL-Cholesterol in the assay with Lipid Metabolism (Table 6, control 102.3(±3.0)) is 89.0(±2.9) mg/dl. In addition, in assay [1], the inhibition at 10 µM stood at 75%. Also, in the assay with HMG-CoA reductase, the “% Suppression HMG-CoA Reductase” value amounted to 65%. Further, in the assay on Hepatic HMGCoA Reductase, the “Hepatic HMGCoA Reductase Activity (mean ± SEM)” value was found to be 266 ± 24 mU/mg and the “Hepatic HMGCoA Reductase Activity % of Control” value came to 56%.

For the molecule `CC(=O)Oc1cc2c(c(C)c1C)OC(C)(CC/C=C(\C)CC/C=C(\C)CCC=C(C)C)CC2` (racemic) [Ex. 33, 3,4-Dihydro-2,7,8-Trimethyl-2-(4,8,12-Trimethyltrideca-3(E),7(E), 11-trienyl)-2H-1-Benzopyran-6-Yl Acetate], in the assay with Hepatic HMGCoA Reductase, the “Hepatic HMGCoA Reductase Activity (mean ± SEM)” value is 236 ± 23 mU/mg and the “Hepatic HMGCoA Reductase Activity % of Control” value is 49%.

Turning to `CC(C)=CCC/C(C)=C/CC/C(C)=C/CCC1(C)CCc2cc(OC(=O)c3cccnc3)c(C)c(C)c2O1` (racemic) [Ex. 34, 3,4-Dihydro-2,7,8-Trimethyl-2-(4,8,12-Trimethyl 3(E), 7(E),11-tridecatrienyl)-2H-1 Benzopyran-6-Yl-3-Pyridine Carboxylate], in the assay on Hepatic HMGCoA Reductase, the “Hepatic HMGCoA Reductase Activity (mean ± SEM)” value is 156 ± 21 mU/mg and the “Hepatic HMGCoA Reductase Activity % of Control” value is 33%.

As to `CC(C)=CCC/C(C)=C/CC/C(C)=C/CCC1(C)CCc2c(C)c(O)c(C)c(C)c2O1` (racemic) [d,1-α-tocotrienol, 3,4-dihydro-2,5,7,8-tetramethyl-2-(4,8,12-trimethyltrideca-3(E),7(E),11-trienyl)-2H-1-benzopyran-6-ol, reference compound], the inhibition at 10 µM in assay [1] was determined as 20%. Also, the “% Suppression HMG-CoA Reductase” value with HMG-CoA reductase amounted to 19%. The inhibition at 41 µg/mL in assay [2] (Rattus norvegicus, Hepatocyte, 41 µg/ml (approx. 100 µM), 15 min preincubation, 60 min incorporation) is 4%. Further, the inhibition at 210 µg/mL in assay [2] (setting [3]) is 17%.

For the molecule `Cc1c(C)c2c(c(C)c1O)CC[C@@](C)(CCC[C@H](C)CCC[C@H](C)CCCC(C)C)O2` [d-α-tocopherol, reference compound], in assay [2] (Expt. # 1, 45 min preincubation, 30 min incorporation), the IC₅₀ result is “no inhib”. The inhibition at 210 µg/mL in assay [2] (setting [3]) was determined as 0%. Moreover, in assay [2] (setting [4]), the inhibition at 250 µg/mL amounted to 0% and the inhibition at 500 µg/mL is 2%. For the same molecule, in assay [2] (setting [5]), the inhibition at 250 µg/mL worked out at 0% and the inhibition at 500 µg/mL turned out to be 0%.

As for `CC(C)=CCC/C(C)=C/CC/C(C)=C/CC[C@]1(C)CCc2c(C)c(O)c(C)c(C)c2O1` [d-α-tocotrienol, reference compound], the inhibition at 125 µg/mL in assay [2] (Rattus norvegicus, Hepatocyte, 125 µg/ml, Expt. # 2, 45 min preincubation, 30 min incorporation, read-out: % Inhibition at µg/ml conc: 125) is 8%. In assay [2] (setting [4]), the inhibition at 250 µg/mL was found to be 8%, the inhibition at 500 µg/mL was 12% and the IC50 was more than 1000 µg/mL. Besides, in assay [2] (setting [5]), the inhibition at 250 µg/mL stood at 20%, the inhibition at 500 µg/mL worked out at 33% and the IC50 was 1300 µg/mL (≈ 3.06 mM).

Turning to α-Tocotrienol [reference compound], in assay [1] (2 hr. Incubation), the IC50 amounted to 380 µM and the “Rel. Potency” value was 0.02. For the same molecule, in assay [1] (4 hr. Incubation), the IC50 amounted to 94 µM and the “Rel. Potency” value was 0.03.

As for γ-Tocopherol [reference compound], in assay [1], the “% Inhibition 14C-Ac” value is reported as 3%. The “% Suppression HMG-CoA Reductase” value in the assay on HMG-CoA reductase is 0%.

(Values after EP0421419A2, “Tocotrienols in the treatment of hypercholesterolemia, hyperlipidemia and thromboembolic disorders” (Bristol-Myers Squibb Company, priority 1989, dated 1991).)
